Data published in US9463338B2, “Derivatives of the sinapinic acid” (PHARMASYNTHESE, priority 2013, dated 2016).
“And” between values parts separate entries of the source, which are not always exact repeats. Identical values can stand only once. Marks after values point to notes of the source that are not given here.

Assays:
normal human melanocytes = assay: Melanin production of normal human melanocytes (conditioned fibroblast media); type: cell-based; conditions: for Melanin/Proteins Difference (%): vs DMSO 0.01%
Excerpt: These experiments allowed to show the capability of the compounds of the invention to modulate the melanin production of normal human melanocytes cultivated in D.K.K. fibroblast monolayers.
Monolayers of normal human dermal fibroblasts have been obtained by cultivating cells collected from a tummy tuck carried out on a person. For carrying out the tests, these cells have been cultivated until obtaining confluent monolayers. Monolayers of normal human melanocytes have been obtained by cultivating cells collected from a tummy tuck carried out on a person. For carrying out the tests, these cells have been cultivated until obtaining non-confluent monolayers. […]
Afterwards, the melanocytes have been incubated for 72 hours at 37° C. in a humid atmosphere with 5% of CO2, in the absence (culture medium alone) or in the presence of kojic acid at 250 μM or of conditioned fibroblast media (see above) diluted to 1/10th in the culture medium of the melanocytes.
The active ingredient has been solubilized in DMSO (Dimethyl Sulfoxide). Afterwards, the dilutions have been carried out in the cells incubation medium with a constant concentration of 0.01% (v/v) of DMSO.
Upon completion of the incubation period, the intracellular melanin content has been quantified in the melanocytic lysates by a spectrophotometric measurement at 405 nm.
Upon completion of the incubation period, the proteins contained in the cellular lysates have been quantified by a spectrophotometric method (Bradford method).
The results are given in the form of μg of intracellular melanin per mg of total proteins of the cellular layer (averages+/− the standard deviation, S.D.).
The statistical significance of the differences observed between the <<Control>> and the <<test product>> conditions, has been assessed through a one-way analysis of variance (One Way ANOVA) followed by a Holm-Sidak test (*:p<0.05).

[1] = test system: normal human dermal fibroblasts; assay: Production of type I pro-collagen in monolayer cultures of normal human dermal fibroblasts (E.I.A.); type: cell-based; conditions: 48 hours; for Procollagen Difference (%): vs DMSO
Procedure: (§1) The test system consists of monolayers of adult normal human dermal fibroblasts obtained by cultivating cells collected from a tummy tuck carried out on a person.
The used reference activator is the Transforming Growth Factor β (TGF-β) at 1 ng/ml. […]
(§2) The compound to be tested is solubilized in 1 mg/ml in DMSO, then diluted in the cells incubation medium, with a constant concentration of 0.1% (v/v) in DMSO.
Upon completion of the incubation period, the type I pro-collagen contained in the fibroblasts incubation media has been quantified using a sensitive and specific E.I.A. kit.
Upon completion of the incubation period, the proteins contained in the cellular lysates have been quantified by a spectrophotometric method (Bradford method—Bradford M. (1976) Anal. Biochem., 72, 248-254).
(§3) The statistical significance of the differences that have been observed between the <<Control>> and the <<reference product>> conditions, has been assessed through a Student test. The statistical significance of the differences that have been observed between the <<Check>> and the <<test products>> conditions, has been assessed through a one-way analysis of variance (One Way ANOVA) followed by a Holm-Sidak test (*:p<0.05).
The results are given in the form of μg of type I pro-collagen per mg of protein (average+/− the standard deviation, S.D.) and are reported in the following Table 5.

[2] = test system: normal human dermal fibroblasts; assay: Production of progerin in monolayer cultures of normal human dermal fibroblasts (ELISA); type: cell-based; conditions: for Progerin % DMSO / Progerin Average / Progerin, individual values / Progerin Difference (%): 96 hours; for Progerin Difference (%): vs DMSO
Excerpt: In order to study the influence of the compounds of the invention on the concentration of progerin in the cells, the assay method described by C. Verdy, J.-E. Branka and N. Mekideche in <<Quantitative assessment of lactate and progerine production in normal human cutaneous cells during normal ageing: effect of an alaria esculenta extract>>, Int. J. Cosmetic Science, 2011, 1-5, has been used.
as §1
Insulin at 10 nM has been used as a reference product in this study. […]
as §2
Upon completion of the incubation period, on the one hand, the progerin has been quantified in the cellular lysates (obtained by ultrasonic action) through a sensitive and specific ELISA assay, and on the other hand, the proteins that are contained in the cellular lysates have been quantified by a spectrophotometric method (Bradford method—Bradford M. (1976) Anal. Biochem., 72, 248-254).
as §3

[3] = test system: explants of adipose tissues; assay: Slimming effect: glycerol released in culture medium of adipose tissue explants; type: cell-based, human
Procedure: The activity of the compounds of the invention on the adipocytes has been assessed. To do so, tests have been carried out on explants of adipose tissues that are kept alive according to the following experimental protocol. The products to be tested are introduced in the culture medium. After 9 days of treatment, the activity is assessed through an assay of the glycerol released in the culture medium. In order to be able to compare the potential activity of the molecules, caffeine (Sigma ref C-0750 batch 127F0396), which is known for its activity on the adipocytes (Studlar M. […] The explants are prepared from a tummy tuck ([…]-AB-40) carried out on a donor. 54 explants of tissues have been prepared and kept alive in a medium which is supplemented with penicillin/streptomycin antibiotics (Gibco ref 15140 batch 918578) at 37° C. and with 5% of CO2. The treatment has been carried out, on 3 explants, by incorporating 100 μl of the product (which is in turn at a 2% concentration in the adequate solvent, DMSO) in 2 ml of the culture medium on days J0, J2, J3, J5 and J7. Caffeine has been diluted to the desired concentration in the culture medium on these same days. The control explants have undergone no treatment. On J0, the 3 explants have been collected and frozen at -80° C. On J9, the remaining explants have been collected and preserved under the same conditions. The extraction of lipids from the culture medium has been carried out according to a tested procedure. The assay of the glycerol of the culture medium has been carried out using a glycerol assay kit (Megazyme, K-GROL) in the form of 96-well microplates and reading has been made at 340 nm with a Tecam Infinite M200 microplate reader associated to the Magellan software.

[4] = 10 ng/ml, conditioned fibroblast medium, melanocytes 72 hours
[5] = 50 ng/ml, conditioned fibroblast medium, melanocytes 72 hours
[6] = 100 ng/ml, conditioned fibroblast medium, melanocytes 72 hours

For `O=c1cc(CO)occ1O` [Kojic acid, kojic acid, reference compound], the Melanin/Proteins % control (normal human melanocytes; 250 μM, melanocytes 72 hours) was 86.6* %, the “Melanin/Proteins Average” value (normal human melanocytes; 250 μM, melanocytes 72 hours) was 14.0 µg/mg and the “Melanin/Proteins, individual values” (normal human melanocytes; 250 μM, melanocytes 72 hours) was 14.3 µg/mg and 13.4 µg/mg and 14.1 µg/mg.
With `COc1cc(COC(=O)/C=C/c2cc(OC)c(OC(C)=O)c(OC)c2)cc(OC)c1OC` [Compound 5] the “Procollagen % DMSO” value ([1]; 10 ng/ml) was 75.7%, the “Procollagen Average” value ([1]; 10 ng/ml) was 39.7* pg/mg of protein and the “Procollagen, individual values” ([1]; 10 ng/ml) was 45.3 pg/mg of protein and 37.0 pg/mg of protein and 36.8 pg/mg of protein. The “Procollagen Difference (%)” value ([1]; 10 ng/ml) was −24.3%, the “Procollagen % DMSO” value ([1]; 100 ng/ml) was 96.3% and the “Procollagen Average” value ([1]; 100 ng/ml) was 50.5 pg/mg of protein. The “Procollagen, individual values” ([1]; 100 ng/ml) was 53.0 pg/mg of protein and 52.3 pg/mg of protein and 46.3 pg/mg of protein, the “Procollagen Difference (%)” value ([1]; 100 ng/ml) was −3.7% and the “Procollagen % DMSO” value ([1]; 500 ng/ml) was 126.9%. The “Procollagen Average” value ([1]; 500 ng/ml) was 66.6* pg/mg of protein, the “Procollagen, individual values” ([1]; 500 ng/ml) was 66.1 pg/mg of protein and 62.3 pg/mg of protein and 71.4 pg/mg of protein and the “Procollagen Difference (%)” value ([1]; 500 ng/ml) was 26.9%. For the same compound, the “Progerin % DMSO” value ([2]; 10 ng/ml) was 27.6%, the “Progerin Average” value ([2]; 10 ng/ml) was 306.4* ng/mg of protein and the “Progerin, individual values” ([2]; 10 ng/ml) was 284.0 ng/mg of protein and 243.7 ng/mg of protein and 391.4 ng/mg of protein. The “Progerin Difference (%)” value ([2]; 10 ng/ml) was −72.4%, the “Progerin % DMSO” value ([2]; 100 ng/ml) was 29.1% and the “Progerin Average” value ([2]; 100 ng/ml) was 322.9* ng/mg of protein. The “Progerin, individual values” ([2]; 100 ng/ml) was 206.0 ng/mg of protein and 364.1 ng/mg of protein and 398.6 ng/mg of protein, the “Progerin Difference (%)” value ([2]; 100 ng/ml) was −70.9% and the “Progerin % DMSO” value ([2]; 500 ng/ml) was 77.9%. For the same compound, the “Progerin Average” value ([2]; 500 ng/ml) was 865.0 ng/mg of protein, the “Progerin, individual values” ([2]; 500 ng/ml) was 916.2 ng/mg of protein and 1021.7 ng/mg of protein and 657.0 ng/mg of protein and the “Progerin Difference (%)” value ([2]; 500 ng/ml) was −22.1%. For the same compound, the “neo synthesis of progerin” value ([2]; under the retained experimental conditions) was “significantly decrease”, the “Glycerol % in comparison with caffeine” value ([3]; after 9 days of treatment) was 82% and the “slimming activity in comparison with caffeine” value ([3]; after 9 days of treatment) was “enhanced slimming activity”. For the same compound, the “Glycerol Average” value ([3]; glycerol released in culture medium after 9 days, 100 μl of 2% product in DMSO in 2 ml medium on J0, J2, J3, J5, J7, 3 explants) was 0.083 mg/mL, the “synthesis of melanin in the melanocytes” value (normal human melanocytes) was “significantly decrease” and the “Melanin/Proteins, individual values” (normal human melanocytes; 10 ng/ml on fibroblasts 48 hours, conditioned medium 1/10th on melanocytes 72 hours) was 14.2 µg/mg and 11.7 µg/mg and 13.7 µg/mg. For the same compound, the “Melanin/Proteins % DMSO” value (normal human melanocytes; [4]) was 83.0%, the “Melanin/Proteins Average” value (normal human melanocytes; [4]) was 14.3* μg/mg and the “Melanin/Proteins Difference (%)” value (normal human melanocytes; 10 ng/ml) was −17.0%. For the same compound, the “Melanin/Proteins, individual values” (normal human melanocytes; 50 ng/ml on fibroblasts 48 hours, conditioned medium 1/10th on melanocytes 72 hours) was 14.3 μg/mg and 14.7 μg/mg (2×), the “Melanin/Proteins % DMSO” value (normal human melanocytes; [5]) was 83.6% and the “Melanin/Proteins Average” value (normal human melanocytes; [5]) was 14.4* μg/mg. The “Melanin/Proteins Difference (%)” value (normal human melanocytes; 50 ng/ml) was −16.4%, the “Melanin/Proteins, individual values” (normal human melanocytes; 100 ng/ml on fibroblasts 48 hours, conditioned medium 1/10th on melanocytes 72 hours) was 15.8 µg/mg and 16.7 µg/mg and 16.0 µg/mg and the “Melanin/Proteins % DMSO” value (normal human melanocytes; [6]) was 93.7%. For the same compound, the “Melanin/Proteins Average” value (normal human melanocytes; [6]) was 16.2 µg/mg and the “Melanin/Proteins Difference (%)” value (normal human melanocytes; 100 ng/ml) was −6.3%.
Compound `COc1cc(/C=C/C(=O)Nc2ccccc2)cc(OC)c1OC(C)=O` [Compound 19, 4-acetoxy-3,5-dimethoxy-N-(phenyl)-cinnamamide] has a melting point of 100 °C.
